Laboratory results: patent publication US20230348442A1, “GALECTIN-3 INHIBITING 2-HYDROXYCYCLOALKANE-1-CARBAMOYL DERIVATIVES” (Idorsia Pharmaceuticals Ltd, priority 2020, published 2023)

molecular target: human Gal-3 (hGal-3) (Homo sapiens (Human), UniProt P17931); test: competitive binding assay: binding of biotinylated hGal-3 to microplate-adsorbed asialofetuin (ASF), spectrophotometric; details: Activity on hGal-3; mean values of several measurements
Procedure, shortened: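 Compounds in DMSO dilution series competed with 300-1000 ng/mL biotinylated hGal-3 for asialofetuin adsorbed on the plate (3 h, 4° C). Streptavidin-peroxidase at 80 ng/mL (1 h, 4° C) with ABTS gave a spectrophotometric read-out, and IC50 was reported as the mean of repeat runs.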

Chain of human Gal-3 (hGal-3) (P17931 whole entry): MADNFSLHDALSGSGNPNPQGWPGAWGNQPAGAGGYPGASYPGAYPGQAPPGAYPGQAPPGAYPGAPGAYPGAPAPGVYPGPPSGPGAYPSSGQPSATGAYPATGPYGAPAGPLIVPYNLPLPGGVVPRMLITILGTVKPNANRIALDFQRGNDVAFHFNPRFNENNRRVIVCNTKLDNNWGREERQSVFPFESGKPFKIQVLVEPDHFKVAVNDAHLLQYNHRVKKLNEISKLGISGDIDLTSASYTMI

SMILES | IC50
Cc1c(F)cc(-c2cn([C@H]3[C@@H](O)[C@@H](CO)O[C@@H](C(=O)N(c4cc(Cl)cc(Cl)c4)[C@H]4CCC[C@@H]4O)[C@@H]3O)nn2)cc1F [Example 1H.4.2, (2R,3R,4S,5R,6R)-N-(3,5-dichlorophenyl)-4-(4-(3,5-difluoro-4-methylphenyl)-1H-1,2,3-triazol-1-yl)-3,5-dihydroxy-N-((1S,2S)-2-hydroxycyclopentyl)-6-(hydroxymethyl)tetrahydro-2H-pyran-2-carboxamide] | 22.7 nM
COc1cc(-c2cn([C@H]3[C@@H](O)[C@@H](CO)O[C@@H](C(=O)N(c4cc(C)cc(Br)c4)[C@@H]4CC[C@H]4O)[C@@H]3OC)nn2)cc(F)c1F [Example 2.3.12R, (2R,3R,4S,5R,6R)-N-(3-bromo-5-methylphenyl)-4-(4-(3,4-difluoro-5-methoxyphenyl)-1H-1,2,3-triazol-1-yl)-5-hydroxy-N-((1R,2R)-2-hydroxycyclobutyl)-6-(hydroxymethyl)-3-methoxytetrahydro-2H-pyran-2-carboxamide] | 311 nM
CO[C@@H]1[C@@H](n2cc(-c3ccc(F)c(F)c3F)nn2)[C@@H](O)[C@@H](CO)O[C@H]1C(=O)N(c1cc(Br)cc(C#N)c1)[C@H]1CCC[C@@H]1O [Example 1.20.5, (2R,3R,4S,5R,6R)-N-(3-bromo-5-cyanophenyl)-5-hydroxy-N-((1S,2S)-2-hydroxycyclopentyl)-6-(hydroxymethyl)-3-methoxy-4-(4-(2,3,4-trifluorophenyl)-1H-1,2,3-triazol-1-yl)tetrahydro-2H-pyran-2-carboxamide] | 28.7 nM
CC(=O)O[C@@H]1[C@@H](n2cc(-c3cc(F)c(Cl)c(F)c3)nn2)[C@@H](O)[C@@H](CO)O[C@H]1C(=O)N(c1cc(Cl)cc(Cl)c1)[C@H]1CCC[C@@H]1O [Example 1A.5.2, (2R,3R,4S,5R,6R)-4-(4-(4-chloro-3,5-difluorophenyl)-1H-1,2,3-triazol-1-yl)-2-((3,5-dichlorophenyl)((1S,2S)-2-hydroxycyclopentyl)carbamoyl)-5-hydroxy-6-(hydroxymethyl)tetrahydro-2H-pyran-3-yl acetate] | 19.8 nM
CO[C@@H]1[C@@H](n2cc(-c3ccc(F)c(F)c3F)nn2)[C@@H](O)[C@@H](CO)O[C@H]1C(=O)N(c1cc(Cl)cc(C#N)c1)[C@H]1CCC[C@@H]1O [Example 1.20.4, (2R,3R,4S,5R,6R)-N-(3-chloro-5-cyanophenyl)-5-hydroxy-N-((1S,2S)-2-hydroxycyclopentyl)-6-(hydroxymethyl)-3-methoxy-4-(4-(2,3,4-trifluorophenyl)-1H-1,2,3-triazol-1-yl)tetrahydro-2H-pyran-2-carboxamide] | 25.7 nM
CO[C@@H]1[C@@H](n2cc(-c3ccc(Cl)cc3)nn2)[C@@H](O)[C@@H](CO)O[C@H]1C(=O)N(c1cc(Cl)cc(C#N)c1)[C@H]1CCC[C@@H]1O [Example 1.18.4, (2R,3R,4S,5R,6R)-N-(3-chloro-5-cyanophenyl)-4-(4-(4-chlorophenyl)-1H-1,2,3-triazol-1-yl)-5-hydroxy-N-((1S,2S)-2-hydroxycyclopentyl)-6-(hydroxymethyl)-3-methoxytetrahydro-2H-pyran-2-carboxamide] | 90.7 nM
CO[C@@H]1[C@@H](n2cc(-c3ccc(Cl)c(F)c3F)nn2)[C@@H](O)[C@@H](CO)O[C@H]1C(=O)N(c1cc(Br)cc(C#N)c1)[C@@H]1CCC[C@H]1O [Example 1.14.5R, (2R,3R,4S,5R,6R)-N-(3-bromo-5-cyanophenyl)-4-(4-(4-chloro-2,3-difluorophenyl)-1H-1,2,3-triazol-1-yl)-5-hydroxy-N-((1R,2R)-2-hydroxycyclopentyl)-6-(hydroxymethyl)-3-methoxytetrahydro-2H-pyran-2-carboxamide] | 25.5 nM
CO[C@@H]1[C@@H](n2cc(-c3ccc(Br)cc3)nn2)[C@@H](O)[C@@H](CO)O[C@H]1C(=O)N(c1cc(Cl)cc(C#N)c1)[C@H]1CCC[C@@H]1O [Example 1.19.4, (2R,3R,4S,5R,6R)-4-(4-(4-bromophenyl)-1H-1,2,3-triazol-1-yl)-N-(3-chloro-5-cyanophenyl)-5-hydroxy-N-((1S,2S)-2-hydroxycyclopentyl)-6-(hydroxymethyl)-3-methoxytetrahydro-2H-pyran-2-carboxamide] | 163 nM
CO[C@@H]1[C@@H](n2cc(-c3ccc(Cl)c(Cl)c3)nn2)[C@@H](O)[C@@H](CO)O[C@H]1C(=O)N(c1cc(Br)cc(C#N)c1)[C@H]1CCC[C@@H]1O [Example 1.8.5, (2R,3R,4S,5R,6R)-N-(3-bromo-5-cyanophenyl)-4-(4-(3,4-dichlorophenyl)-1H-1,2,3-triazol-1-yl)-5-hydroxy-N-((1S,2S)-2-hydroxycyclopentyl)-6-(hydroxymethyl)-3-methoxytetrahydro-2H-pyran-2-carboxamide] | 40.8 nM
CO[C@@H]1[C@@H](n2cc(-c3cc(F)c(F)c(F)c3)nn2)[C@@H](O)[C@@H](CO)O[C@H]1C(=O)N(c1cc(Cl)cc(C#N)c1)[C@H]1CC[C@@H]1O [Example 2.1.4, (2R,3R,4S,5R,6R)-N-(3-chloro-5-cyanophenyl)-5-hydroxy-N-((1S,2S)-2-hydroxycyclobutyl)-6-(hydroxymethyl)-3-methoxy-4-(4-(3,4,5-trifluorophenyl)-1H-1,2,3-triazol-1-yl)tetrahydro-2H-pyran-2-carboxamide] | 78.8 nM
CO[C@@H]1[C@@H](n2cc(-c3cc(F)c(F)c(F)c3)nn2)[C@@H](O)[C@@H](CO)O[C@H]1C(=O)N(c1cccc(I)c1)[C@H]1CC[C@@H]1O [Example 2.1.6, (2R,3R,4S,5R,6R)-5-hydroxy-N-((1S,2S)-2-hydroxycyclobutyl)-6-(hydroxymethyl)-N-(3-iodophenyl)-3-methoxy-4-(4-(3,4,5-trifluorophenyl)-1H-1,2,3-triazol-1-yl)tetrahydro-2H-pyran-2-carboxamide] | 196 nM
CO[C@@H]1[C@@H](n2cc(-c3cccc(F)c3)nn2)[C@@H](O)[C@@H](CO)O[C@H]1C(=O)N(c1cc(Cl)cc(C#N)c1)[C@H]1CCC[C@@H]1O [Example 1.15.4, (2R,3R,4S,5R,6R)-N-(3-chloro-5-cyanophenyl)-4-(4-(3-fluorophenyl)-1H-1,2,3-triazol-1-yl)-5-hydroxy-N-((1S,2S)-2-hydroxycyclopentyl)-6-(hydroxymethyl)-3-methoxytetrahydro-2H-pyran-2-carboxamide] | 54 nM
CO[C@@H]1[C@@H](n2cc(-c3ccc(C#N)c(F)c3)nn2)[C@@H](O)[C@@H](CO)O[C@H]1C(=O)N(c1cc(C)cc(C#N)c1)[C@@H]1CCC[C@H]1O [Example 1.16.8R, (2R,3R,4S,5R,6R)-4-(4-(4-cyano-3-fluorophenyl)-1H-1,2,3-triazol-1-yl)-N-(3-cyano-5-methylphenyl)-5-hydroxy-N-((1R,2R)-2-hydroxycyclopentyl)-6-(hydroxymethyl)-3-methoxytetrahydro-2H-pyran-2-carboxamide] | 1260 nM
CO[C@@H]1[C@@H](n2cc(-c3ccc(C#N)c(F)c3)nn2)[C@@H](O)[C@@H](CO)O[C@H]1C(=O)N(c1cc(Br)cc(C#N)c1)[C@H]1CC[C@@H]1O [Example 2.16.5, (2R,3R,4S,5R,6R)-N-(3-bromo-5-cyanophenyl)-4-(4-(4-cyano-3-fluorophenyl)-1H-1,2,3-triazol-1-yl)-5-hydroxy-N-((1S,2S)-2-hydroxycyclobutyl)-6-(hydroxymethyl)-3-methoxytetrahydro-2H-pyran-2-carboxamide] | 243 nM
CO[C@@H]1[C@@H](n2cc(-c3cc(F)c(Cl)c(Cl)c3)nn2)[C@@H](O)[C@@H](CO)O[C@H]1C(=O)N(c1cc(Br)cc(C#N)c1)[C@@H]1CC[C@H]1O [Example 2.17.5R, (2R,3R,4S,5R,6R)-N-(3-bromo-5-cyanophenyl)-4-(4-(3,4-dichloro-5-fluorophenyl)-1H-1,2,3-triazol-1-yl)-5-hydroxy-N-((1R,2R)-2-hydroxycyclobutyl)-6-(hydroxymethyl)-3-methoxytetrahydro-2H-pyran-2-carboxamide] | 254 nM
CO[C@@H]1[C@@H](n2cc(-c3ccc(Cl)c(Cl)c3)nn2)[C@@H](O)[C@@H](CO)O[C@H]1C(=O)N(c1cc(Br)cc(C#N)c1)[C@H]1CC[C@@H]1O [Example 2.8.5, (2R,3R,4S,5R,6R)-N-(3-bromo-5-cyanophenyl)-4-(4-(3,4-dichlorophenyl)-1H-1,2,3-triazol-1-yl)-5-hydroxy-N-((1S,2S)-2-hydroxycyclobutyl)-6-(hydroxymethyl)-3-methoxytetrahydro-2H-pyran-2-carboxamide] | 155 nM
CO[C@@H]1[C@@H](n2cc(-c3cc(F)c(Br)c(F)c3)nn2)[C@@H](O)[C@@H](CO)O[C@H]1C(=O)N(c1cc(Cl)cc(C#N)c1)[C@H]1CC[C@@H]1O [Example 2.6.4, (2R,3R,4S,5R,6R)-4-(4-(4-bromo-3,5-difluorophenyl)-1H-1,2,3-triazol-1-yl)-N-(3-chloro-5-cyanophenyl)-5-hydroxy-N-((1S,2S)-2-hydroxycyclobutyl)-6-(hydroxymethyl)-3-methoxytetrahydro-2H-pyran-2-carboxamide] | 80 nM
CO[C@@H]1[C@@H](n2cc(-c3ccc(C)c(F)c3F)nn2)[C@@H](O)[C@@H](CO)O[C@H]1C(=O)N(c1cc(Br)cc(C#N)c1)[C@@H]1CC[C@H]1O [Example 2.11.5R, (2R,3R,4S,5R,6R)-N-(3-bromo-5-cyanophenyl)-4-(4-(2,3-difluoro-4-methylphenyl)-1H-1,2,3-triazol-1-yl)-5-hydroxy-N-((1R,2R)-2-hydroxycyclobutyl)-6-(hydroxymethyl)-3-methoxytetrahydro-2H-pyran-2-carboxamide] | 98.7 nM
COc1cc(C#N)cc(N(C(=O)[C@@H]2O[C@H](CO)[C@H](O)[C@H](n3cc(-c4cc(F)cc(Br)c4)nn3)[C@H]2OC)[C@H]2CCC[C@@H]2O)c1 [Example 1.10.9, (2R,3R,4S,5R,6R)-4-(4-(3-bromo-5-fluorophenyl)-1H-1,2,3-triazol-1-yl)-N-(3-cyano-5-methoxyphenyl)-5-hydroxy-N-((1S,2S)-2-hydroxycyclopentyl)-6-(hydroxymethyl)-3-methoxytetrahydro-2H-pyran-2-carboxamide] | 174 nM
